Data on 1 molecule can be found in patent publication US20040096356A1, “Assay device for determining analytes in a liquid dairy product” (priority 1997, published 2004).

The target of this test is T1, enzyme R39 (soluble exocellular D-alanyl-D-alanine carboxypeptidase produced by Actinomadura R39) (Actinomadura sp., UniProt P39045).
T1 construct: soluble exocellular D-alanyl-D-alanine carboxypeptidase produced by Actinomadura R39, obtained by the procedure described in J.-M. Frere et al; made in house; host or cells: Actinomadura R39 (natural producer, secreted enzyme)
Nature of the test: Test 1, rapid test (5 minutes): strip test for β-lactam antibiotics in milk using enzyme R39. Type of test: binding. Conditions: for Intensity 1st band: scale 0 to 10, reference band 6, 47° C., 3 min incubation + 2 min migration. Here is the method: The identifier used in this example is soluble exocellular D-alanyl-D-alanine carboxypeptidase produced by Actinomadura R39, obtained by the procedure described in J.-M. Frere et al., Antimicrobial Agents and Chemotherapy, 18(4), 506-510 (1980).
250 μl of an aqueous solution of enzyme R39 having a concentration of 1 mg/ml are dialysed for 24 hours against 500 ml of HNM buffer (Hepes 10 mM, pH 8, NaCl 10 mM, MgCl2 5 mM). To this dialysed solution of enzyme R39 are then added 2 ml of bicarbonate buffer (0.1 M sodium bicarbonate, pH 9) and 250 μl of a solution of N-hydroxysuccinimide 6-(biotinamido)caproic ester having a concentration of 5 mg/ml in anhydrous DMF. This solution is stirred gently in the LABINCO stirrer for tubes on a rotary axis (available from VEL, Belgium) at a rate of 2 revolutions/minute for 3 hours at room temperature and away from light. The solution thus obtained is dialysed against the HNM buffer ([…]) for 24 hours. In this way a solution of biotinylated enzyme R39 is obtained which is diluted in HNM-BSA buffer (Hepes 500 mM; pH 8, NaCl 500 mM, MgCl2 250 mM, BSA 10 mg/ml) to a concentration of 100 μg of enzyme R39 per ml of buffer. This solution is stored at −20° C.
As the marker use is made of particles of gold having a diameter of 40 nm on which a goat anti-biotin antibody has been deposited in the form of suspensions in a 2 mM aqueous sodium tetraborate solution, with a pH of 7.2, stabilized by 0.1% of sodium azide (available from British Biocell (Ref. GAB40)). The optical density of these suspensions at 520 nm is approximately 10 and the protein concentration is approximately 24 μg/ml.
The biotinylated enzyme R39 solution prepared in Example 2.2.1 is diluted 25 times with the HNM-BSA buffer (Hepes 500 mM, pH 8, NaCl 500 mM, MgCl2 250 mM, BSA 10 mg/ml). At room temperature, 17.5 parts by volume of this dilute biotinylated enzyme R39 solution, 9.27 parts by volume of the gold particle suspension used to label the enzyme R39 and 6 parts by volume of reference gold particle suspension are mixed (see Example 2.3).
The first capture substance makes it possible to fix the identifiers coupled with the free markers present in excess relative to the quantity of antibiotic present in the sample.
Assay devices containing membranes (2), (3) and (4) are used, assembled in accordance with the procedure described in Example 1.1. The membrane (3) of these devices carries on the proximal side the capture substance described in Example 2.4.1. and on the distal side the capture substance described in Example 2.4.2. The capture substances were deposited in accordance with the procedure described in Example 1.2.
Seven samples of milk are prepared, containing 0; 2; 4; 5; 6; 8 and 10 ppb, respectively, of penicillin G. Each of these solutions is then analysed as follows.
An aliquot is taken of 200 μl of milk sample and […] of solution A prepared in Example 2.2.3, and is placed in an Eppendorf tube. This mixture is incubated at 47° C. for 3 minutes. An assay device is then placed vertically in the Eppendorf tube such that the first end of the assay device is in contact with the mixture. The mixture is allowed to migrate over the assay device while the assembly is incubated at 47° C. for 2 minutes.
An intensity value ranging from 0 to 10 is awarded to the bands detected, the value 10 being given to the most intense band and the value 0 being given to the least intense band. On this scale, a value 6 is awarded to the reference band. The intensity of the signal observed in the first detection band is inversely proportional to the quantity of penicillin G present in the sample.
In this example, the test is considered to be positive when the first band has an intensity which is lower than that of the reference band. The results shown in Table 1 indicate that this test makes it possible to detect in 5 minutes down to 4 ppb of penicillin G in a milk sample.

T1 sequence (P39045 50-515): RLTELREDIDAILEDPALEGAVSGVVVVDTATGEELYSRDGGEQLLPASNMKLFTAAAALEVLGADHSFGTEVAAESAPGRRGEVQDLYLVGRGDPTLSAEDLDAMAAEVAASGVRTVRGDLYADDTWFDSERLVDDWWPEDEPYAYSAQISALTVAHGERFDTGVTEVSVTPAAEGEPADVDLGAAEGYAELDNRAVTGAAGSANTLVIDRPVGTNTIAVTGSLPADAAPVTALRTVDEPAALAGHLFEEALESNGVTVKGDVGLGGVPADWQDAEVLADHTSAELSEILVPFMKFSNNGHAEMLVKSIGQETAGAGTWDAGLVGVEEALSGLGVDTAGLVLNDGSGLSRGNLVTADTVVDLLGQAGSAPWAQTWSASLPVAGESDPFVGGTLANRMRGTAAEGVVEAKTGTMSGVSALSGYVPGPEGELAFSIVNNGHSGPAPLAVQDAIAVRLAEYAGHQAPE

With `CC1(C)S[C@@H]2[C@H](NC(=O)Cc3ccccc3)C(=O)N2[C@H]1C(=O)O` [Penicillin G, penicillin G], the “Intensity 1st band” value is recorded as 8 (2 ppb penicillin G in milk); 5 (4 ppb penicillin G in milk); 3 (5 ppb penicillin G in milk); 2 (6 ppb penicillin G in milk); 1 (8 ppb penicillin G in milk); 0 (10 ppb penicillin G in milk). Moreover, the “lowest concentration detected in a milk sample” value (in 5 minutes, positive when first band is less intense than reference band) came to 4 ppb.
